Laboratory results from the supplement of paper PMC10307832.

Experiments:
Assay in all cases: relative viability (nuclei count vs DMSO), 5 days (fraction); higher = more cells survive
Alpelisib + Phenformin = compound: Cc1nc(NC(=O)N2CCC[C@H]2C(N)=O)sc1-c1ccnc(C(C)(C)C(F)(F)F)c1 [Alpelisib] + N=C(N)NC(=N)NCCc1ccccc1 [Phenformin] (partner 250 µM)
Procedure, shortened: (§1)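 Values are medians from duplicate plates. Each reflects relative viability, defined as the nuclei count of treated wells over that of vehicle wells. Lung cancer cell lines in 1536-well plates were pin-tool dosed one day after seeding with one drug alone or with a fixed anchor-drug dose plus five library-drug doses (not always all listed) in √10 steps, then fixed, stained and imaged at 4× after 5 days.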

OSI-027 + Crizotinib = compound: COc1cccc2cc(-c3nc([C@H]4CC[C@H](C(=O)O)CC4)n4ncnc(N)c34)[nH]c12 [OSI-027] + C[C@@H](Oc1cc(-c2cnn(C3CCNCC3)c2)cnc1N)c1c(Cl)ccc(F)c1Cl [Crizotinib] (partner 1 µM)
Procedure, shortened: as §1

Vemurafenib + Dasatinib = compound: CCCS(=O)(=O)Nc1ccc(F)c(C(=O)c2c[nH]c3ncc(-c4ccc(Cl)cc4)cc23)c1F [Vemurafenib] + Cc1nc(Nc2ncc(C(=O)Nc3c(C)cccc3Cl)s2)cc(N2CCN(CCO)CC2)n1 [Dasatinib] (partner 0.075 µM)
Procedure, shortened: as §1

OSI-027 + Vorinostat = compound: COc1cccc2cc(-c3nc([C@H]4CC[C@H](C(=O)O)CC4)n4ncnc(N)c34)[nH]c12 [OSI-027] + O=C(CCCCCCC(=O)Nc1ccccc1)NO [Vorinostat] (partner 1 µM)
Procedure, shortened: as §1

Cell Line	relative viability (Alpelisib + Phenformin; first compound 0.04 µM)	relative viability (Alpelisib + Phenformin; first compound 0.1265 µM)	relative viability (Alpelisib + Phenformin; first compound 0.4 µM)	relative viability (Alpelisib + Phenformin; first compound 1.265 µM)	relative viability (Alpelisib + Phenformin; first compound 4 µM)	relative viability (OSI-027 + Crizotinib; first compound 0.01 µM)	relative viability (OSI-027 + Crizotinib; first compound 0.03162 µM)	relative viability (OSI-027 + Crizotinib; first compound 0.1 µM)	relative viability (OSI-027 + Crizotinib; first compound 0.3162 µM)	relative viability (OSI-027 + Crizotinib; first compound 1 µM)	relative viability (Vemurafenib + Dasatinib; first compound 0.03162 µM)	relative viability (Vemurafenib + Dasatinib; first compound 0.1 µM)	relative viability (Vemurafenib + Dasatinib; first compound 0.3162 µM)	relative viability (Vemurafenib + Dasatinib; first compound 1 µM)	relative viability (OSI-027 + Vorinostat; first compound 0.01 µM)	relative viability (OSI-027 + Vorinostat; first compound 0.03162 µM)	relative viability (OSI-027 + Vorinostat; first compound 0.1 µM)	relative viability (OSI-027 + Vorinostat; first compound 0.3162 µM)	relative viability (OSI-027 + Vorinostat; first compound 1 µM)
NCI-H1755	0.653	0.601	0.68	0.574	0.433	0.915	0.771	0.872	0.748	0.421	0.396	0.406	0.243	0.43	0.72	0.855	0.655	0.711	0.472
PC-14	0.653	0.406	0.67	0.54	0.526	1	0.898	0.95	0.934	0.581	0.229	–	0.228	0.267	0.734	0.72	0.585	0.698	0.445
NCI-H3122	0.409	0.403	0.41	0.399	0.316	0.261	0.26	0.266	0.215	0.163	0.652	0.598	0.841	0.712	0.991	1.09	1.06	0.93	0.732
HCC-44	0.248	0.174	0.187	0.141	0.161	0.819	0.794	0.817	0.737	0.343	–	–	–	–	1.11	1.16	1.17	1.09	0.757
NCI-H1703	–	–	–	–	–	0.753	0.591	0.595	0.672	0.374	–	–	–	–	–	–	–	–	–
NCI-H1563	0.637	0.698	0.64	0.604	0.589	0.835	0.894	0.768	0.701	0.733	0.526	0.432	0.465	0.419	–	–	–	–	–
SW 900	0.561	0.525	0.449	0.474	0.347	–	–	–	–	–	0.827	0.61	0.538	0.505	0.545	0.592	0.386	0.421	0.206
EBC-1	–	–	–	–	–	0.21	0.21	0.183	0.184	0.164	–	–	–	–	–	–	–	–	–
NCI-H1299	–	–	–	–	–	0.994	0.984	0.937	1.04	0.937	–	–	–	–	–	–	–	–	–
NCI-H1623	0.548	0.545	0.516	0.532	0.426	–	–	–	–	–	0.565	–	0.716	0.485	–	–	–	–	–
NCI-H522	0.573	0.601	0.782	0.5	0.582	–	–	–	–	–	1.08	0.718	0.875	0.855	0.768	1.02	0.883	0.686	0.638
NCI-H1648	–	–	–	–	–	–	–	–	–	–	–	–	–	–	0.369	0.323	–	0.477	0.236
A549	0.147	0.21	0.172	0.16	0.115	0.782	0.711	0.704	0.45	0.167	–	–	–	–	–	–	–	–	–
Calu-6	–	–	–	–	–	0.806	0.726	0.765	0.626	0.625	–	–	–	–	–	–	–	–	–
